Laboratory results reported in US20090215783A1, “COMPOSITION FOR INDUCTION OR INHIBITION OF STEM CELL DIFFERENTIATION” (CHOONGWAE PHARMA CORPORATION, priority 2006, published 2009).

Key:
[1] = test system: Mouse embryonic stem (ES) cells, TC1; test: Cardiomyogenesis modulating activity assay (alpha-MHC promoter EGFP, embryoid bodies, FACS/fluorescence microscopy); assay type: cell-based; conditions: embryoid bodies treated for 5 days, FACS
Experimental: a. Cell culture: Mouse embryonic stem (ES) cells, TC1 derived from 129/S6 strain were cultured on irradiated feeder layer in the culture medium which is high-glucose DMEM (Gibco) BRL, Germany) supplemented with 15% FBS (Hyclone), 0.1 mM beta-mercaptoethanol, […] sodium pyruvate, 1 mM L-glutamine and 1× non-essential amino acids.
b. Establishment of alpha-MHC stably transformed ES cell line: A construct (FIG. 8) containing 1.8 kb promoter sequence of the mouse alpha-MHC gene between EcoRI and SalI sites of pEGFP-1 (Clontech Laboratories, Inc, CA, USA) was linearized at XhoI site, and was introduced into mouse ES cells, TC1, using the Gene Pulser II (BioRad, MA). A selection medium containing G418 was applied for two weeks from 24 hours after electroporation. The selected ES cell clones were harvested and expanded on the feeder cell layer. The green fluorescence-expressing clones when differentiated into cardiomyocytes were used in this experiment.
c. Cardiomyogenesis modulating activity assay: Embryoid body (EB) was formed by hanging drop culture using about a number of 600 (six hundred) ES cells for two days and it was further expanded by culturing in suspension condition on a Petri-dish for another two days. Then each EB was plated on a well of 96 well culture plates. Test compounds were dissolved in DMSO and diluted with culture media (final 0.05% DMSO) and EB was treated with test compound for 5 days. Culture medium was changed every three days after plating. Expression level of EGFP was measured with FACS (Beckman). For FACS analysis, differentiating cells were dissociated with trypsin. For the determination of the extent of differentiation, EB was observed and photographed with an inverted fluorescence microscope (Zeiss, Germany). Number of beating EBs was counted under the microscope and recorded once daily.

[2] = test system: human bone marrow derived-mesenchymal stem cells (hBMMSC); test: Osteogenesis modulating activity assay by test compound alone (ALP activity); assay type: cell-based; conditions: Homo sapiens, 168 h; hBMMSC, 20 μM test compound alone, six to seven days; read-out: Osteogenesis: fold change of ALP activity compared with DMSO control
Experimental: Cell culture: Human bone marrow derived-mesenchymal stem cells (hBMMSC) were isolated from normal subjects.
Osteogenesis modulating activity assay by test compound alone: hBMMSC were cultivated in the culture medium and cells were seeded into 96-well culture plates and test compounds were dissolved in DMSO and diluted with culture media (final 0.01% DMSO) and added into the media (final concentration of test compound was 20 μM) and cultured in the CO2 incubator (37° C., 5% CO2). Culture medium was changed every two days with fresh one and compound was treated again whenever medium was changed. Six to seven days after incubation, Alkaline phosphatase activity of cell lysates was measured by colorimetry. For the determination of mineralization within the cells, Von Kossa staining or Alizarin Red S assay was performed 10-14 days after incubation.

| Structure (SMILES) | Cardiomyogenesis: fold change of EGFP expression level compared with DMSO control [1] [fold] | fold induction at 20 µM [2] |
| --- | --- | --- |
| CN1CC(=O)N2[C@@H](Cc3ccc(Cl)cc3)C(=O)N(CCCc3ccccc3)C[C@@H]2N1C(=O)NCc1ccccc1 [#29] | 1.71 | 0.91 |
| CCCCN1C[C@H]2N(C(=O)CN(C)N2C(=O)NCc2ccccc2)[C@@H](Cc2ccc(Cl)cc2)C1=O [#30] | 1.75 | 1.12 |
| CN1CC(=O)N2[C@H](Cc3ccccc3)C(=O)N(CCc3ccccc3)C[C@H]2N1C(=O)NCc1ccccc1 [#31] | 1.10 | 1 |
| CN1CC(=O)N2[C@@H](COCc3ccccc3)C(=O)N(CCc3ccccc3)C[C@@H]2N1C(=O)NCc1ccccc1 [#32] | 0.95 | 0.94 |
| CN1CC(=O)N2[C@@H](CCc3ccccc3)C(=O)N(CCc3ccccc3)C[C@@H]2N1C(=O)NCc1ccccc1 [#33] | 0.28 | 1.85 |
| COc1ccc(C[C@H]2C(=O)N(CCc3ccccc3)C[C@H]3N2C(=O)CN(C)N3C(=O)NCc2ccccc2)cc1 [#34] | 1.71 | 1.03 |
| CN1CC(=O)N2[C@@H](Cc3ccc(OCc4ccccc4)cc3)C(=O)N(CCc3ccccc3)C[C@@H]2N1C(=O)NCc1ccccc1 [#35] | 1.03 | 0.94 |
| Cc1ccc(C[C@H]2C(=O)N(CCc3ccccc3)C[C@H]3N2C(=O)CN(C)N3C(=O)NCc2ccccc2)cc1 [#36] | 0.54 | 1.55 |
| CN1CC(=O)N2[C@@H](CC3CCCCC3)C(=O)N(CCc3ccccc3)C[C@@H]2N1C(=O)NCc1ccccc1 [#37] | 0.98 | 0.95 |
| CN1CC(=O)N2[C@@H](Cc3ccc(F)cc3)C(=O)N(CCc3ccccc3)C[C@@H]2N1C(=O)NCc1ccccc1 [#38] | 0.69 | 0.48 |
| CN1CC(=O)N2[C@@H](Cc3ccc(Cl)cc3)C(=O)N(CCc3ccccc3)C[C@@H]2N1C(=O)NCc1ccccc1 [#39] | 0.29 | 0.79 |
| CCCCNC(=O)N1[C@H]2CN(CCCCc3ccccc3)C(=O)[C@H](Cc3ccc(O)cc3)N2C(=O)CN1Cc1cccc(F)c1 [#40] | 1.11 | 0.69 |
| CCCCNC(=O)N1[C@H]2CN(CCCCc3ccccc3)C(=O)[C@H](C(C)CC)N2C(=O)CN1Cc1cccc(F)c1 (some centres unmarked) [#41] | 2.15 | 0.6 |
| CCCCNC(=O)N1[C@H]2CN(CCCCc3ccccc3)C(=O)[C@H](CCC)N2C(=O)CN1Cc1cccc(F)c1 [#42] | 1.87 | 0.31 |
| CCCCNC(=O)N1C2CN(CCCCc3ccccc3)C(=O)C(CC(=O)O)N2C(=O)CN1Cc1cccc(F)c1 (centres unmarked) [#43] | 1.17 | 0.33 |
| CCCCNC(=O)N1[C@H]2CN(CCCCc3ccccc3)C(=O)[C@H](CCC(=O)O)N2C(=O)CN1Cc1cccc(F)c1 [#44] | 1.98 | 0.56 |
| CCCCNC(=O)N1[C@H]2CN([C@@H](C)c3ccccc3)C(=O)[C@H](CC(C)C)N2C(=O)CN1Cc1ccc(C)cc1 [#46] | 1.90 | 1.02 |
| C#CCN1CC(=O)N2C(Cc3ccc(C)cc3)C(=O)N(CCCCCCC)C[C@@H]2N1C(=O)NCc1ccccc1 (some centres unmarked) [#51] | 0.49 | 0.31 |
| CC(C)[C@H]1C(=O)N(Cc2cccc(F)c2)C[C@H]2N1C(=O)CN(Cc1ccccc1)N2C(=O)NCc1ccccc1 [#55] | 1.26 | 0.98 |

| Structure (SMILES) | Cardiomyogenesis: fold change of EGFP expression level compared with DMSO control [1] [fold] | fold induction at 20 µM [2] |
| --- | --- | --- |
| CCC(C)[C@H]1C(=O)N(Cc2cccc(F)c2)C[C@H]2N1C(=O)CN(Cc1ccccc1)N2C(=O)NCc1ccccc1 (some centres unmarked) [#57] | 0.43 | 0.64 |
| CC(C)C[C@@H]1C(=O)N(Cc2cccc(C(F)(F)F)c2)C[C@@H]2N1C(=O)CN(Cc1ccc(F)cc1)N2C(=O)NCc1ccccc1 [#63] | 0.47 | 0.41 |
| O=C1[C@H](CCc2ccccc2)N2C(=O)CN(Cc3ccc(F)cc3)N(C(=O)NCc3ccccc3)[C@H]2CN1Cc1cccc(C(F)(F)F)c1 [#64] | 2.83 | 0.79 |
| COc1ccc(C[C@H]2C(=O)N(Cc3cccc(C(F)(F)F)c3)C[C@H]3N2C(=O)CN(Cc2ccc(F)cc2)N3C(=O)NCc2ccccc2)cc1 [#65] | 2.54 | 1.34 |
| Cc1ccc(C[C@H]2C(=O)N(Cc3cccc(C(F)(F)F)c3)C[C@H]3N2C(=O)CN(Cc2ccc(F)cc2)N3C(=O)NCc2ccccc2)cc1 [#67] | 1.50 | 0.8 |
| CC[C@H]1C(=O)N(Cc2cccc(C(F)(F)F)c2)C[C@H]2N1C(=O)CN(Cc1ccc(F)cc1)N2C(=O)NCc1ccccc1 [#68] | 0.69 | 0.91 |
| O=C1[C@H](CC2CCCCC2)N2C(=O)CN(Cc3ccc(F)cc3)N(C(=O)NCc3ccccc3)[C@H]2CN1Cc1cccc(C(F)(F)F)c1 [#69] | 1.69 | 0.71 |
| O=C1[C@H](Cc2ccc(F)cc2)N2C(=O)CN(Cc3ccc(F)cc3)N(C(=O)NCc3ccccc3)[C@H]2CN1Cc1cccc(C(F)(F)F)c1 [#70] | 0.92 | 1.03 |
| O=C1[C@H](Cc2ccc(Cl)cc2)N2C(=O)CN(Cc3ccc(F)cc3)N(C(=O)NCc3ccccc3)[C@H]2CN1Cc1cccc(C(F)(F)F)c1 [#72] | 1.76 | 0.84 |
| O=C1[C@H](COCc2ccccc2)N2C(=O)CN(Cc3ccccc3)N(C(=O)NCc3ccccc3)[C@H]2CN1CCc1ccc(Cl)cc1 [#73] | 1.57 | 0.64 |
| CC(C)C[C@@H]1C(=O)N(CCc2ccc(Cl)cc2)CC2N1C(=O)CN(Cc1ccccc1)N2C(=O)NCc1ccccc1 (some centres unmarked) [#74] | 1.59 | 0.54 |
| O=C1[C@H](CCc2ccccc2)N2C(=O)CN(Cc3ccccc3)N(C(=O)NCc3ccccc3)[C@H]2CN1CCc1ccc(Cl)cc1 [#75] | 0.50 | 1.16 |
| COc1ccc(C[C@H]2C(=O)N(CCc3ccc(Cl)cc3)C[C@H]3N2C(=O)CN(Cc2ccccc2)N3C(=O)NCc2ccccc2)cc1 [#76] | 1.24 | 1.58 |
| O=C1[C@H](Cc2ccc(OCc3ccccc3)cc2)N2C(=O)CN(Cc3ccccc3)N(C(=O)NCc3ccccc3)[C@H]2CN1CCc1ccc(Cl)cc1 [#77] | 1.40 | 0.98 |
| Cc1ccc(C[C@H]2C(=O)N(CCc3ccc(Cl)cc3)C[C@H]3N2C(=O)CN(Cc2ccccc2)N3C(=O)NCc2ccccc2)cc1 [#78] | 1.70 | 0.75 |
| O=C1[C@H](CC2CCCCC2)N2C(=O)CN(Cc3ccccc3)N(C(=O)NCc3ccccc3)[C@H]2CN1CCc1ccc(Cl)cc1 [#79] | 1.67 | 0.58 |
| O=C1[C@H](Cc2ccc(F)cc2)N2C(=O)CN(Cc3ccccc3)N(C(=O)NCc3ccccc3)[C@H]2CN1CCc1ccc(Cl)cc1 [#80] | 1.49 | 0.19 |
| O=C1[C@H](Cc2ccc(F)c(F)c2)N2C(=O)CN(Cc3ccccc3)N(C(=O)NCc3ccccc3)C2CN1CCc1ccc(Cl)cc1 (some centres unmarked) [#81] | 0.81 | 1.84 |
